Numbered stars: 1 amine (or outer) side, 2 acyl side, 3 side chain; on linkers, the order of the positions; unused ones are H or OH. Square brackets hold non-standard residues; d marks the D form. Side chains are listed from the residue outwards. Peptide text beside a SMILES is read from it. * marks the point of attachment. C18 diacid = O=C(O)CCCCCCCCCCCCCCCCC(=O)*; γGlu = O=C(O)[C@H](CCC(=O)[*:2])N[*:1]; Ac4c = NC1(C(=O)O)CCC1; AEEA = NCCOCCOCC(=O)O; Aib = CC(C)(N)C(=O)O
Tests used:
[1] = Hepatic terminal triglycerides and cholesterol content in diet-induced NASH mice; format: in vivo, male C57BL/6 mice; settings: after 56 days of treatment; FIG. 5A
Protocol: (§1) At 5 weeks of age, male C57BL/6 mice were purchased from JanVier, France. During the acclimatization and diet-induction period, the mice were group housed ten per cage in custom-made cabinets under a 12:12 light dark cycle (lights on from 3 AM-3 PM) at controlled temperature conditions (22±1° C.; 50±10% relative humidity). Throughout the diet-induction the mice had ad libitum access to AMLN diet (D09100301, Research Diet, USA) (40% fat (18% trans-fat), 40% carbohydrates (20% fructose) and 2% cholesterol) or regular rodent chow (chow vehicle group) (Altromin 1324, Brogaarden, Denmark) and tap water. Throughout the study period the mice had ad libitum access to AMLN diet, except the weight-matched group which was food restricted to lower the body weight to the same level as for animals receiving compound A or compound B, or regular rodent chow (chow vehicle group) and tap water. […]
(§2) During the diet-induction period, body weight was intermittently monitored. […]
Animal experiments were conducted as described in the section “General Methods of Animal Experiments”. Triglycerides and total cholesterol content in liver homogenates were measured in single determinations using autoanalyzer Cobas C-111 with commercial kit (Roche Diagnostics, Germany) according to manufacturer's instructions. […]

human GLP-1 receptor = molecular target: T1, human GLP-1 receptor (Homo sapiens, UniProt P43220); experiment: GLP-1 receptor SPA binding assay; settings: 0% HSA; BHK cell membranes; displacement of [125I]-GLP-1(7-36)-NH2; read-out: Human GLP1 R SPA binding 0% HSA IC50
T1 construct: expressed in transfected cells; membrane preparation
Source text: (§3) In one embodiment affinity refers to in vitro binding affinity, i.e. performance in a GLP-1 receptor binding affinity assay and in a glucagon receptor binding affinity assay, more particularly to the capability of binding the human GLP-1 receptor and to the human glucagon receptor. The binding affinity of the human GLP-1 receptor may be measured in a binding assay, e.g. in a stably transfected BHK cell line that expresses the human GLP-1 receptor. Radioactively labelled GLP-1 binds to the receptor and may be displaced competitvely by a compound. Binding of radioligand may be determined in the presence of scintillation proximity assay (SPA) beads which bind to cell membranes and when radioactivity is close to the bead it produces light which is measured and is a measure of the in vitro binding affinity. […] The binding affinity of the human glucagon receptor may be measured in a binding affinity assay, e.g. in a stably transfected BHK cell line that expresses the human glucagon receptor. […] Binding of radioligand may be determined in the presence of scintillation proximity assay (SPA) beads which bind to cell membranes and when radioactivity is close to the bead it produces light which is measured and is a measure of the in vitro binding affinity. […] The protein concentration was subsequently determined, and the membranes were stored at −80° C. until use. […]

[2] = Plasma alanine transferase levels in diet-induced NASH mice; format: in vivo, male C57BL/6 mice; settings: after 56 days of treatment, SC once daily; FIG. 3
Protocol: as §1, §2
Animal experiments were conducted as described in the section “General Methods of Animal Experiments”. […] All parameters are measured in single determinations using autoanalyzer Cobas C-111 with commercial kit (Roche Diagnostics, Germany) according to the manufacturer's instructions. Data are expressed as mean±SEM (NASH groups n=11-12, Chow Vehicle group n=10). […]

human glucagon receptor = molecular target: T2, human glucagon receptor (Homo sapiens, UniProt P47871); experiment: Glucagon receptor SPA binding assay; settings: 0% HSA; BHK cell membranes; displacement of [125I]-glucagon; read-out: Human GCG R SPA binding 0% HSA IC50
T2 construct: expressed in transfected cells; membrane preparation
Source text: as §3

T2 sequence (P47871 26-477): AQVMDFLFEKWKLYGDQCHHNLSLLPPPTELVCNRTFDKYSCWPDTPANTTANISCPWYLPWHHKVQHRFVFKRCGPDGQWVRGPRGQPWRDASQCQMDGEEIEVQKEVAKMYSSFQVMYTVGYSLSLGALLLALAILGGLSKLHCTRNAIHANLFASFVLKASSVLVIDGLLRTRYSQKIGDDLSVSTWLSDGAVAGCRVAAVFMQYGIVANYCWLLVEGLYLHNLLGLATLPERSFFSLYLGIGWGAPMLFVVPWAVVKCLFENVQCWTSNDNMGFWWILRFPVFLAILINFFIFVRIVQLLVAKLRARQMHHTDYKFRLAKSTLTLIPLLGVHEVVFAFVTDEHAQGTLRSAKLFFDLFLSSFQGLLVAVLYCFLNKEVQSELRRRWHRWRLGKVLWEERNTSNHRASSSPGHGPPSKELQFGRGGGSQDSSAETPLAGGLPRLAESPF
T1 sequence (P43220 24-463): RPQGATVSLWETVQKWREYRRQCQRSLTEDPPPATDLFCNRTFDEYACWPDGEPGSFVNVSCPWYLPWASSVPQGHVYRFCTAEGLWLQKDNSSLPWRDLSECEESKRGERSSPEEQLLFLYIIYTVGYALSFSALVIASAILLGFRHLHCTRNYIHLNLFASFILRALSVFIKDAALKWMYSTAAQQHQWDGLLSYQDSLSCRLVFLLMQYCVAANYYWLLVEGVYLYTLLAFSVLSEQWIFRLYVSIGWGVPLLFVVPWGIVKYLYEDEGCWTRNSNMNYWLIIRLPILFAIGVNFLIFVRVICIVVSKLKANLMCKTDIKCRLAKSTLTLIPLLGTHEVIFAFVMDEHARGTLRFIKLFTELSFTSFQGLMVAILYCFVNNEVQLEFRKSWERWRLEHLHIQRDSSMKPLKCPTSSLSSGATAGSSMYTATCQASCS

| IC50 (human GLP-1 receptor) | IC50 (human glucagon receptor) | SMILES | effect on liver triglyceride levels compared with the weight-matched (WM) group [1] | effect on plasma ALT levels compared with the weight-matched (WM) group [2] |
| --- | --- | --- | --- | --- |
| 0.3 nM | 1.4 nM | CC(C)C[C@H](NC(=O)[C@H](Cc1ccc(O)cc1)NC(=O)[C@H](CCCCN)NC(=O)[C@H](CO)NC(=O)[C@H](CC(C)C)NC(=O)[C@H](CC(=O)O)NC(=O)[C@H](CO)NC(=O)[C@@H](NC(=O)[C@H](Cc1ccccc1)NC(=O)[C@@H](NC(=O)CNC(=O)[C@H](CCC(N)=O)NC(=O)C(C)(C)NC(=O)[C@@H](N)Cc1c[nH]cn1)[C@@H](C)O)[C@@H](C)O)C(=O)N[C@@H](CCC(=O)O)C(=O)N[C@@H](CO)C(=O)N[C@@H](CCCCN)C(=O)N[C@@H](CCCNC(=N)N)C(=O)N[C@@H](C)C(=O)N[C@@H](CCCNC(=N)N)C(=O)N[C@@H](CCC(=O)O)C(=O)N[C@@H](Cc1ccccc1)C(=O)N[C@H](C(=O)N[C@@H](CCC(N)=O)C(=O)N[C@@H](Cc1c[nH]c2ccccc12)C(=O)N[C@@H](CC(C)C)C(=O)N[C@@H](CC(C)C)C(=O)N[C@@H](CCCCNC(=O)CC[C@H](NC(=O)CC[C@H](NC(=O)[C@H](CO)NC(=O)[C@H](CCC(=O)O)NC(=O)[C@H](CO)NC(=O)CC[C@H](NC(=O)CC[C@H](NC(=O)CCCCCCCCCCCCCCCCC(=O)O)C(=O)O)C(=O)O)C(=O)O)C(=O)O)C(=O)N[C@H](C(N)=O)[C@@H](C)O)C(C)C [Compound A, N^ε28-[(4S)-4-carboxy-4-[[(4S)-4-carboxy-4-[[(2S)-2-[[(2S)-4-carboxy-2-[[(2S)-2-[[(4S)-4-carboxy-4-[[(4S)-4-carboxy-4-(17-carboxyheptadecanoylamino)butanoyl]amino]butanoyl]amino]-3-hydroxypropanoyl]amino]butanoyl]amino]-3-hydroxypropanoyl]amino]butanoyl]amino]butanoyl]-[Aib2,Leu10,Glu15,Lys17,Arg20,Glu21,Leu27,Lys28]-Glucagon amide] (H-H[Aib]QGTFTSDLSKYLESKRAREFVQWLLK([γGlu-γGlu-Ser-Glu-Ser-γGlu-γGlu-C18 diacid])T-NH2) | the observed effect is bigger | the observed effect is bigger |
| 1.6 nM | 0.8 nM | CC(C)C[C@H](NC(=O)[C@H](CC(=O)O)NC(=O)[C@H](CC(C)C)NC(=O)[C@H](Cc1ccc(O)cc1)NC(=O)[C@H](CCCCN)NC(=O)[C@H](CO)NC(=O)[C@H](CC(C)C)NC(=O)[C@H](CC(=O)O)NC(=O)[C@H](CO)NC(=O)[C@@H](NC(=O)[C@H](Cc1ccccc1)NC(=O)[C@@H](NC(=O)CNC(=O)[C@H](CCC(N)=O)NC(=O)C1(NC(=O)[C@@H](N)Cc2c[nH]cn2)CCC1)[C@@H](C)O)[C@@H](C)O)C(=O)N[C@@H](CCCNC(=N)N)C(=O)N[C@@H](CCCNC(=N)N)C(=O)N[C@@H](C)C(=O)N[C@@H](CCCNC(=N)N)C(=O)N[C@@H](CC(=O)O)C(=O)N[C@@H](Cc1ccccc1)C(=O)N[C@H](C(=O)N[C@@H](CCC(N)=O)C(=O)N[C@@H](Cc1c[nH]c2ccccc12)C(=O)N[C@@H](CC(C)C)C(=O)N[C@@H](CC(C)C)C(=O)N[C@@H](CCCCNC(=O)CC[C@H](NC(=O)CC[C@H](NC(=O)COCCOCCNC(=O)COCCOCCNC(=O)CC[C@H](NC(=O)CC[C@H](NC(=O)CCCCCCCCCCCCCCCCC(=O)O)C(=O)O)C(=O)O)C(=O)O)C(=O)O)C(=O)N[C@H](C(N)=O)[C@@H](C)O)C(C)C [Compound B, N^ε28-[(4S)-4-carboxy-4-[[(4S)-4-carboxy-4-[[2-[2-[2-[[2-[2-[2-[[(4S)-4-carboxy-4-[[(4S)-4-carboxy-4-(17-carboxyheptadecanoylamino)butanoyl]amino]butanoyl]amino]ethoxy]ethoxy]acetyl]amino]ethoxy]ethoxy]acetyl]amino]butanoyl]amino]butanoyl]-[Acb2,Leu10,Leu16,Arg20,Leu27,Lys28]-Glucagon amide] (H-H[Ac4c]QGTFTSDLSKYLDLRRARDFVQWLLK([γGlu-γGlu-AEEA-AEEA-γGlu-γGlu-C18 diacid])T-NH2) | the observed effect is bigger | the observed effect is bigger |

Source: patent US20200268835A1, “Compounds For Use in NASH” (Novo Nordisk A/S, priority 2019, published 2020)
